According to ChEMBL document CHEMBL1201862, “PubChem BioAssay data set” (2004):
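Following 48 hours of exposure in 96-well plates, responses at five concentrations were used to interpolate endpoints linearly. GI50: concentration for 50% inhibition of growth.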 Activity calls are given as the source filed them. Rule as the data show it: active = GI50 up to about 1.1 µM and inactive = higher.

Key:
Test in all cases: NCI tumour cell line growth inhibition, 48 h
U-251 = system: U-251
A549 = system: A549
RPMI-8226 = system: RPMI-8226
SF-539 = system: SF-539
SF-295 = system: SF-295
OVCAR-4 = system: OVCAR-4
UACC-257 = system: UACC-257
SK-OV-3 = system: SK-OV-3
MCF7 = system: MCF7
OVCAR-3 = system: OVCAR-3
MDA-MB-231 = system: MDA-MB-231
SK-MEL-28 = system: SK-MEL-28
SNB-19 = system: SNB-19
EKVX = system: EKVX
SF-268 = system: SF-268
SR = system: SR
Malme-3M = system: Malme-3M
KM12 = system: KM12
ACHN = system: ACHN
OVCAR-5 = system: OVCAR-5

| SMILES | GI50 (U-251) | GI50 (A549) | GI50 (RPMI-8226) | GI50 (SF-539) | GI50 (SF-295) | GI50 (OVCAR-4) | GI50 (UACC-257) | GI50 (SK-OV-3) | GI50 (MCF7) | GI50 (OVCAR-3) | GI50 (MDA-MB-231) | GI50 (SK-MEL-28) | GI50 (SNB-19) | GI50 (EKVX) | GI50 (SF-268) | GI50 (SR) | GI50 (Malme-3M) | GI50 (KM12) | GI50 (ACHN) | GI50 (OVCAR-5) |
| --- | --- | --- | --- | --- | --- | --- | --- | --- | --- | --- | --- | --- | --- | --- | --- | --- | --- | --- | --- | --- |
| COc1ccc(C[C@@H]2NC[C@@H](O)[C@@H]2OC(C)=O)cc1 | 0.0173 µM (active) | 0.0316 µM (active) | 0.0296 µM (active) | 0.0234 µM (active) | 0.0253 µM (active) | 0.00957 µM (active) | 0.0228 µM (active) | 0.0169 µM (active) | 0.0135 µM (active) | 0.0256 µM (active) | 0.0196 µM (active) | 0.0206 µM (active) | 0.0228 µM (active) | 0.0475 µM (active) | 0.0232 µM (active) | 0.0164 µM (active) | 0.0385 µM (active) | 0.027 µM (active) | 0.011 µM (active) | 0.0198 µM (active) |
| O=C(c1c(Cl)cc(Cl)cc1Cl)N(Cc1cccnc1)C(=S)N(Cc1cccnc1)C(=O)c1c(Cl)cc(Cl)cc1Cl | 9.02 µM (inactive) | 32.1 µM (inactive) | 1.27 µM (inactive) | 11 µM (inactive) | 19.4 µM (inactive) | 2.19 µM (inactive) | 7.26 µM (inactive) | 22.2 µM (inactive) | 4.52 µM (inactive) | 3.77 µM (inactive) | 20.4 µM (inactive) | 11 µM (inactive) | 20.2 µM (inactive) | 15.5 µM (inactive) | 6.97 µM (inactive) | 6.56 µM (inactive) | 19.5 µM (inactive) | 2.97 µM (inactive) | 19.1 µM (inactive) | 18.5 µM (inactive) |
| CC1(F)C=CC(=O)C=C1 | 24.7 µM (inactive) | > 100 µM (inactive) | 29.4 µM (inactive) | 37.9 µM (inactive) | > 100 µM (inactive) | 79.3 µM (inactive) | 71.8 µM (inactive) | > 100 µM (inactive) | 31.8 µM (inactive) | > 100 µM (inactive) | 40.1 µM (inactive) | > 100 µM (inactive) | > 100 µM (inactive) | > 100 µM (inactive) | > 100 µM (inactive) | 32.6 µM (inactive) | 18.4 µM (inactive) | > 100 µM (inactive) | 59.6 µM (inactive) | 58.7 µM (inactive) |
| O=c1c2ccccc2nc(Nc2cccc(Cl)c2)n1/N=C/C=C/c1ccccc1 | 28.8 µM (inactive) | 75.3 µM (inactive) | > 100 µM (inactive) | 35.7 µM (inactive) | 60 µM (inactive) | 45.5 µM (inactive) | 85.9 µM (inactive) | 70 µM (inactive) | 26.3 µM (inactive) | 73.1 µM (inactive) | 71 µM (inactive) | > 100 µM (inactive) | 47.2 µM (inactive) | 80.7 µM (inactive) | 53 µM (inactive) | 29.6 µM (inactive) | > 100 µM (inactive) | > 100 µM (inactive) | 50.7 µM (inactive) | > 100 µM (inactive) |
| COc1cc(C(=O)Oc2c(C(C)=O)sc3c2c(=O)n(-c2ccccc2)c(=S)n3-c2ccccc2)cc(OC)c1OC | 20.7 µM (inactive) | 28.9 µM (inactive) | 27 µM (inactive) | 11.6 µM (inactive) | 8.3 µM (inactive) | 24.5 µM (inactive) | 28.1 µM (inactive) | 31.6 µM (inactive) | 19.5 µM (inactive) | 18.2 µM (inactive) | 25.9 µM (inactive) | 19.2 µM (inactive) | 24.7 µM (inactive) | 18.7 µM (inactive) | 24.5 µM (inactive) | > 100 µM (inactive) | 8.17 µM (inactive) | 22.8 µM (inactive) | 16.6 µM (inactive) | 17.5 µM (inactive) |
| C/C=C/C(O)P(=O)(OC)OC (stereo not given) | 0.307 µM (active) | 0.274 µM (active) | 0.162 µM (active) | 0.279 µM (active) | 0.366 µM (active) | 0.335 µM (active) | 0.256 µM (active) | 1.03 µM (active) | 0.269 µM (active) | 0.255 µM (active) | 0.428 µM (active) | 0.32 µM (active) | 0.436 µM (active) | 0.308 µM (active) | 0.263 µM (active) | 0.257 µM (active) | 0.296 µM (active) | 0.278 µM (active) | 0.344 µM (active) | 0.284 µM (active) |
| O=C(O)C(O)C(O)C(O)C(=O)CO (stereo not given) | > 100 µM (inactive) | > 100 µM (inactive) | > 100 µM (inactive) | > 100 µM (inactive) | > 100 µM (inactive) | > 100 µM (inactive) | > 100 µM (inactive) | > 100 µM (inactive) | > 100 µM (inactive) | > 100 µM (inactive) | > 100 µM (inactive) | > 100 µM (inactive) | > 100 µM (inactive) | > 100 µM (inactive) | > 100 µM (inactive) | > 100 µM (inactive) | > 100 µM (inactive) | > 100 µM (inactive) | > 100 µM (inactive) | > 100 µM (inactive) |
| O=c1[nH]c2nc3ccccc3c(=O)n2/c1=C/c1ccccc1 | 29.9 µM (inactive) | > 100 µM (inactive) | 34.9 µM (inactive) | 22.5 µM (inactive) | > 100 µM (inactive) | > 100 µM (inactive) | 23.7 µM (inactive) | > 100 µM (inactive) | 44.2 µM (inactive) | 22 µM (inactive) | > 100 µM (inactive) | 45.1 µM (inactive) | 19.6 µM (inactive) | 35.3 µM (inactive) | 20.6 µM (inactive) | > 100 µM (inactive) | 38.6 µM (inactive) | 38.5 µM (inactive) | 47 µM (inactive) | > 100 µM (inactive) |
| OC1c2[nH]c3ccccc3c2CCN2CCCCC12 (stereo not given) | > 100 µM (inactive) | > 100 µM (inactive) | > 100 µM (inactive) | > 100 µM (inactive) | > 100 µM (inactive) | > 100 µM (inactive) | > 100 µM (inactive) | > 100 µM (inactive) | > 100 µM (inactive) | > 100 µM (inactive) | > 100 µM (inactive) | > 100 µM (inactive) | > 100 µM (inactive) | > 100 µM (inactive) | > 100 µM (inactive) | > 100 µM (inactive) | > 100 µM (inactive) | > 100 µM (inactive) | > 100 µM (inactive) | > 100 µM (inactive) |
| OCCN(CCO)c1ccc2c(C(F)(F)F)cc(C(F)(F)F)nc2n1 | > 100 µM (inactive) | > 77.3 µM (inactive) | > 100 µM (inactive) | > 100 µM (inactive) | > 100 µM (inactive) | > 100 µM (inactive) | > 100 µM (inactive) | > 100 µM (inactive) | > 100 µM (inactive) | > 100 µM (inactive) | > 100 µM (inactive) | > 100 µM (inactive) | > 100 µM (inactive) | > 100 µM (inactive) | > 100 µM (inactive) | > 100 µM (inactive) | > 100 µM (inactive) | > 100 µM (inactive) | > 100 µM (inactive) | > 100 µM (inactive) |
| CC(=O)O[C@H]1C(=O)[C@@]2(C)[C@H]([C@H](OC(=O)c3ccoc3)[C@]3(O)C[C@H](OC(=O)[C@H](O)[C@@H](NC(=O)c4ccccc4)c4ccccc4)C(C)=C1C3(C)C)[C@]1(OC(C)=O)CO[C@@H]1C[C@@H]2O | 0.0811 µM (active) | 0.115 µM (active) | 0.00904 µM (active) | 0.0286 µM (active) | 0.582 µM (active) | > 12.5 µM (inactive) | 0.538 µM (active) | 0.0578 µM (active) | 0.0138 µM (active) | 0.0296 µM (active) | 3.05 µM (inactive) | > 12.5 µM (inactive) | 0.145 µM (active) | > 9.59 µM (inactive) | 0.0583 µM (active) | 0.026 µM (active) | 0.0316 µM (active) | 0.0344 µM (active) | 2.1 µM (inactive) | 0.0953 µM (active) |
| Clc1ncc(Cl)c(Cl)n1 | 4.22 µM (inactive) | 12.1 µM (inactive) | 0.455 µM (active) | 8.97 µM (inactive) | 13.2 µM (inactive) | 2.08 µM (inactive) | 5.22 µM (inactive) | 4.7 µM (inactive) | 1.59 µM (inactive) | 6.5 µM (inactive) | 3.03 µM (inactive) | 3.42 µM (inactive) | 3.3 µM (inactive) | 13.3 µM (inactive) | 9.12 µM (inactive) | 1.61 µM (inactive) | 1.88 µM (inactive) | 9.14 µM (inactive) | 1.92 µM (inactive) | 19.8 µM (inactive) |
| CC(O)CCCOC(c1ccccc1)(c1ccccc1)c1ccccc1 (stereo not given) | 16.4 µM (inactive) | 13.8 µM (inactive) | 15.2 µM (inactive) | 17.2 µM (inactive) | 13.8 µM (inactive) | 14.8 µM (inactive) | 16.3 µM (inactive) | 16.6 µM (inactive) | 14.7 µM (inactive) | 14.2 µM (inactive) | 17.3 µM (inactive) | 16.4 µM (inactive) | 16 µM (inactive) | 14.8 µM (inactive) | 15.9 µM (inactive) | 20.1 µM (inactive) | 14.5 µM (inactive) | 14.3 µM (inactive) | 14.6 µM (inactive) | 16.7 µM (inactive) |
| CC(C)CC(=O)NC(C(=O)NC(C(=O)NC(CC(C)C)C(O)CC(=O)NC(C)C(=O)NC(CC(C)C)C(O)CC(=O)O)C(C)C)C(C)C (stereo not given) | > 100 µM (inactive) | > 100 µM (inactive) | > 100 µM (inactive) | > 100 µM (inactive) | > 100 µM (inactive) | > 100 µM (inactive) | > 100 µM (inactive) | > 100 µM (inactive) | > 100 µM (inactive) | > 100 µM (inactive) | > 100 µM (inactive) | > 100 µM (inactive) | > 100 µM (inactive) | > 100 µM (inactive) | > 100 µM (inactive) | > 100 µM (inactive) | > 100 µM (inactive) | > 100 µM (inactive) | > 100 µM (inactive) | > 100 µM (inactive) |
